Assay results as given in US4345938A, “Herbicidal 2-haloacetanilides” (Monsanto Company, priority 1980, dated 1982).

What was measured:
Type in all cases: in vivo
Cocklebur = experiment: Pre-emergent herbicidal test, Cocklebur; settings: Table II
Source text: (§1) A good grade of top soil is placed in aluminum pans and compacted to a depth of three-eights to one-half inch from the top of the pan. On the top of the soil is placed a number of seeds or vegetative propagules of various plant species. The soil required to level fill the pans after seeding or adding vegetative propagules is weighted into a pan. The soil and a known amount of the active ingredient applied in a solvent or as a wettable powder suspension are thoroughly mixed, and used to cover the prepared pans. After treatment, the pans are moved into a greenhouse bench where they are watered by subirrigation as needed to give adequate moisture for germination and growth.
(§2) Approximately 2 weeks after seeding and treating, the plants were observed and the results recorded. The herbicidal rating was obtained by means of a fixed scale based on the percent injury of each plant species. The ratings are defined as follows: […]

Velvetleaf = experiment: Pre-emergent herbicidal test, Velvetleaf
Source text: as §1, §2

Lambsquarters = experiment: Pre-emergent herbicidal test, Lambsquarters
Source text: as §1, §2

Smartweed = experiment: Pre-emergent herbicidal test, Smartweed
Source text: as §1, §2

Downy Brome = experiment: Pre-emergent herbicidal test, Downy Brome
Source text: as §1, §2

Barnyardgrass = experiment: Pre-emergent herbicidal test, Barnyardgrass
Source text: as §1, §2

Wheat = experiment: Pre-emergent herbicidal test, Wheat; settings: Table II
Source text: as §1, §2
(§3) The compounds were further tested by utilizing the above procedure on the following plant species: […]

Rice = experiment: Pre-emergent herbicidal test, Rice; settings: Table II
Source text: as §1, §2, §3

Sorghum = experiment: Pre-emergent herbicidal test, Sorghum; settings: Table II
Source text: as §1, §2, §3

Wild Buckwheat = experiment: Pre-emergent herbicidal test, Wild Buckwheat; settings: Table II
Source text: as §1, §2, §3

Hemp Sesbania = experiment: Pre-emergent herbicidal test, Hemp Sesbania; settings: Table II
Source text: as §1, §2, §3

Panicum Spp. = experiment: Pre-emergent herbicidal test, Panicum Spp.; settings: Table II
Source text: as §1, §2, §3
Further: ranges in brackets are in %.

CCCCOc1cccc(CC)c1N(C)C(=O)CCl [Example 1, N-methyl-2'-n-butoxy-6'-ethyl-2-chloroacetanilide]
Rating, Cocklebur (Cocklebur; 0.06 kg/h): 0 (0-24) | Rating, Cocklebur (Cocklebur; 5.6 kg/h): 0 (0-24) | Rating, Velvetleaf (Velvetleaf; Table I, 5.6 kg/h): 2 (50-74) | Rating, Velvetleaf (Velvetleaf; Table I, 11.2 kg/h): 2 (50-74) | Rating, Velvetleaf (Velvetleaf; Table II, 0.006 kg/h): 0 (0-24) | Rating, Velvetleaf (Velvetleaf; Table II, 0.01 kg/h): 0 (0-24) | Rating, Velvetleaf (Velvetleaf; Table II, 0.06 kg/h): 0 (0-24) | Rating, Velvetleaf (Velvetleaf; Table II, 0.28 kg/h): 0 (0-24) | Rating, Velvetleaf (Velvetleaf; Table II, 1.12 kg/h): 1 (25-49) | Rating, Velvetleaf (Velvetleaf; Table II, 5.6 kg/h): 1 (25-49) | Rating, Lambsquarters (Lambsquarters; Table I, 5.6 kg/h): 3 (75-100) | Rating, Lambsquarters (Lambsquarters; Table I, 11.2 kg/h): 3 (75-100) | Rating, Lambsquarters (Lambsquarters; Table II, 0.006 kg/h): 0 (0-24) | Rating, Lambsquarters (Lambsquarters; Table II, 0.01 kg/h): 0 (0-24) | Rating, Lambsquarters (Lambsquarters; Table II, 0.06 kg/h): 0 (0-24) | Rating, Lambsquarters (Lambsquarters; Table II, 0.28 kg/h): 2 (50-74) | Rating, Lambsquarters (Lambsquarters; Table II, 1.12 kg/h): 3 (75-100) | Rating, Lambsquarters (Lambsquarters; Table II, 5.6 kg/h): 3 (75-100) | Rating, Smartweed (Smartweed; Table I, 5.6 kg/h): 2 (50-74) | Rating, Smartweed (Smartweed; Table I, 11.2 kg/h): 3 (75-100) | Rating, Smartweed (Smartweed; Table II, 0.006 kg/h): 0 (0-24) | Rating, Smartweed (Smartweed; Table II, 0.01 kg/h): 0 (0-24) | Rating, Smartweed (Smartweed; Table II, 0.06 kg/h): 0 (0-24) | Rating, Smartweed (Smartweed; Table II, 0.28 kg/h): 2 (50-74) | Rating, Smartweed (Smartweed; Table II, 1.12 kg/h): 3 (75-100) | Rating, Smartweed (Smartweed; Table II, 5.6 kg/h): 3 (75-100) | Rating, Downy Brome (Downy Brome; Table I, 5.6 kg/h): 3 (75-100) | Rating, Downy Brome (Downy Brome; Table I, 11.2 kg/h): 3 (75-100) | Rating, Downy Brome (Downy Brome; Table II, 0.006 kg/h): 0 (0-24) | Rating, Downy Brome (Downy Brome; Table II, 0.01 kg/h): 1 (25-49) | Rating, Downy Brome (Downy Brome; Table II, 0.06 kg/h): 3 (75-100) | Rating, Downy Brome (Downy Brome; Table II, 0.28 kg/h): 3 (75-100) | Rating, Downy Brome (Downy Brome; Table II, 1.12 kg/h): 3 (75-100) | Rating, Downy Brome (Downy Brome; Table II, 5.6 kg/h): 3 (75-100) | Rating, Barnyardgrass (Barnyardgrass; Table I, 5.6 kg/h): 3 (75-100) | Rating, Barnyardgrass (Barnyardgrass; Table I, 11.2 kg/h): 3 (75-100) | Rating, Barnyardgrass (Barnyardgrass; Table II, 0.006 kg/h): 1 (25-49) | Rating, Barnyardgrass (Barnyardgrass; Table II, 0.01 kg/h): 2 (50-74) | Rating, Barnyardgrass (Barnyardgrass; Table II, 0.06 kg/h): 3 (75-100) | Rating, Barnyardgrass (Barnyardgrass; Table II, 0.28 kg/h): 3 (75-100) | Rating, Barnyardgrass (Barnyardgrass; Table II, 1.12 kg/h): 3 (75-100) | Rating, Barnyardgrass (Barnyardgrass; Table II, 5.6 kg/h): 3 (75-100) | Rating, Wheat (Wheat; 0.006 kg/h): 0 (0-24) | Rating, Wheat (Wheat; 0.01 kg/h): 0 (0-24) | Rating, Wheat (Wheat; 0.06 kg/h): 1 (25-49) | Rating, Wheat (Wheat; 0.28 kg/h): 2 (50-74) | Rating, Wheat (Wheat; 1.12 kg/h): 2 (50-74) | Rating, Wheat (Wheat; 5.6 kg/h): 3 (75-100) | Rating, Rice (Rice; 0.006 kg/h): 1 (25-49) | Rating, Rice (Rice; 0.01 kg/h): 1 (25-49) | Rating, Rice (Rice; 0.06 kg/h): 1 (25-49) | Rating, Rice (Rice; 0.28 kg/h): 3 (75-100) | Rating, Rice (Rice; 1.12 kg/h): 3 (75-100) | Rating, Rice (Rice; 5.6 kg/h): 3 (75-100) | Rating, Sorghum (Sorghum; 0.006 kg/h): 0 (0-24) | Rating, Sorghum (Sorghum; 0.01 kg/h): 0 (0-24) | Rating, Sorghum (Sorghum; 0.06 kg/h): 2 (50-74) | Rating, Sorghum (Sorghum; 0.28 kg/h): 3 (75-100) | Rating, Sorghum (Sorghum; 1.12 kg/h): 3 (75-100) | Rating, Sorghum (Sorghum; 5.6 kg/h): 3 (75-100) | Rating, Wild Buckwheat (Wild Buckwheat; 0.006 kg/h): 0 (0-24) | Rating, Wild Buckwheat (Wild Buckwheat; 0.01 kg/h): 1 (25-49) | Rating, Wild Buckwheat (Wild Buckwheat; 0.06 kg/h): 1 (25-49) | Rating, Wild Buckwheat (Wild Buckwheat; 0.28 kg/h): 1 (25-49) | Rating, Wild Buckwheat (Wild Buckwheat; 1.12 kg/h): 2 (50-74) | Rating, Wild Buckwheat (Wild Buckwheat; 5.6 kg/h): 3 (75-100) | Rating, Hemp Sesbania (Hemp Sesbania; 0.006 kg/h): 2 (50-74) | Rating, Hemp Sesbania (Hemp Sesbania; 0.01 kg/h): 2 (50-74) | Rating, Hemp Sesbania (Hemp Sesbania; 0.06 kg/h): 3 (75-100) | Rating, Hemp Sesbania (Hemp Sesbania; 0.28 kg/h): 3 (75-100) | Rating, Hemp Sesbania (Hemp Sesbania; 1.12 kg/h): 3 (75-100) | Rating, Hemp Sesbania (Hemp Sesbania; 5.6 kg/h): 3 (75-100) | Rating, Panicum Spp. (Panicum Spp.; 0.006 kg/h): 0 (0-24) | Rating, Panicum Spp. (Panicum Spp.; 0.01 kg/h): 1 (25-49) | Rating, Panicum Spp. (Panicum Spp.; 0.06 kg/h): 3 (75-100) | Rating, Panicum Spp. (Panicum Spp.; 0.28 kg/h): 3 (75-100) | Rating, Panicum Spp. (Panicum Spp.; 1.12 kg/h): 3 (75-100) | Rating, Panicum Spp. (Panicum Spp.; 5.6 kg/h): 3 (75-100)
